Here are results for four molecules from patent US20260210939A1, “MODIFIED OLFACTORY RECEPTORS” (GIVAUDAN SA, priority 2022, published 2026).

SMILES strings stand for the structures. Where two headings read alike, the source gives them in different places.

Series [1] concerns the target human class II OR identified in the library screening (Homo sapiens, UniProt Q9Y4A9). Nature of the series: Confirmatory dose-response analysis of library-hit OR with cognate ligand, wild-type vs C-terminal domain SEQ ID NO: 221 (Table 17).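 Further: Wild-type receptor sequences expressed from the pcDNA3.1(+) vector and compared with the C-terminally modified receptors in dose-response tests using each receptor's cognate ligand.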 The conditions noted are these: read-out: Potency, EC50 changed C-term; OR10H1, modified C-terminus SEQ ID NO: 221 (SEQ ID NO: 679).
Target sequence in this assay (Q9Y4A9 1-297): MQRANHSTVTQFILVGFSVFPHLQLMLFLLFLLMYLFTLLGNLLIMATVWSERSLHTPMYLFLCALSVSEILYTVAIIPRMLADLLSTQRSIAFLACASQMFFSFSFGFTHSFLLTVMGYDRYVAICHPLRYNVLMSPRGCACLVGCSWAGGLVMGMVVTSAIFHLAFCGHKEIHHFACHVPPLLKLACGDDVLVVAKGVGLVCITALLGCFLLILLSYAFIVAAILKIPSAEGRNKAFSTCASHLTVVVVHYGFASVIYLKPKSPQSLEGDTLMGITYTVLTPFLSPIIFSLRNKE
Experimental: (§1) Selected ligand—OR pairs were then tested in a confirmatory test with a dose response analysis.
(§2) For selected receptors, the wild-type sequence was synthesized and cloned into pcDNA3.1 (+). Dose-response analysis with the cognate ligand was then performed for both the wild-type and the modified sequence.

For series [2], the target named is human class II OR identified in the library screening (Homo sapiens, UniProt Q8NGX5). The description is as above. The conditions noted are these: read-out: Potency, EC50 changed C-term; OR10K1, modified C-terminus SEQ ID NO: 221 (SEQ ID NO: 687).
Target sequence in this assay (Q8NGX5 1-292): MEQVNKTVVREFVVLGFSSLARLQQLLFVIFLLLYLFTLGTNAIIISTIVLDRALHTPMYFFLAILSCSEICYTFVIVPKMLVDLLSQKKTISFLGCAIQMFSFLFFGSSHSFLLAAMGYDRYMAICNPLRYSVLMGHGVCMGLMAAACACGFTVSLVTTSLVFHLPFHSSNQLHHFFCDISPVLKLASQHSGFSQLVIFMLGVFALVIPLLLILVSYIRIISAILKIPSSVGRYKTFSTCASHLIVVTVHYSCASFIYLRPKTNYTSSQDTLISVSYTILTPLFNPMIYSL
Experimental: as §1, §2
Series [3] deals with human class II OR identified in the library screening. The series is described as above. The settings on record: for Fold improvement efficacy: maximal induction; for Detection threshold; Fold improvement efficacy: under detection threshold.
Experimental: as §1, §2
For series [4], the target named is human class II OR identified in the library screening (Homo sapiens, UniProt Q9Y4A9).
Target sequence in this assay (Q9Y4A9 whole entry, the tested form may be a part): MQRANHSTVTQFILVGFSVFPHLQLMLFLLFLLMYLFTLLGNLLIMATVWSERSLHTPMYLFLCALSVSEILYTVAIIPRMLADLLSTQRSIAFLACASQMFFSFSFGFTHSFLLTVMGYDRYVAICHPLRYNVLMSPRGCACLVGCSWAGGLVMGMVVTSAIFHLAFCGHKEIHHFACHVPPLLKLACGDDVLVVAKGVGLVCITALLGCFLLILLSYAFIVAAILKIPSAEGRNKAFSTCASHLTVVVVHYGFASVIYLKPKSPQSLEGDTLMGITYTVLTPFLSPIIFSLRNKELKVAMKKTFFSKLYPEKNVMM
Experimental: as §1, §2
In series [5] the target is human class II OR identified in the library screening (Homo sapiens, UniProt Q8NGX5).
Target sequence in this assay (Q8NGX5 whole entry, the tested form may be a part): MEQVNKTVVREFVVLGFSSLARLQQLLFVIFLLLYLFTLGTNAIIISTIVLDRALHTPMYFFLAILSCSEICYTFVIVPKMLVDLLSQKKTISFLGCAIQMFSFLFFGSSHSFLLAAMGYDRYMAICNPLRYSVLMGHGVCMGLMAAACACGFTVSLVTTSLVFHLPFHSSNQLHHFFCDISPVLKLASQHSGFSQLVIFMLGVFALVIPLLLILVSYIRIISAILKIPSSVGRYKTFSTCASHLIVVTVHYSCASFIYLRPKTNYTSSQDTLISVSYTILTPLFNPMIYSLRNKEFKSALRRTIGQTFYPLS
Experimental: as §1, §2
Series [6] deals with human class II OR identified in the library screening (Homo sapiens, UniProt Q8NG85). Put plainly: Confirmatory dose-response analysis of library-hit OR with cognate ligand, wild-type vs C-terminal domain SEQ ID NO: 221 (Table 17).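 Further: Wild-type receptor sequences expressed from the pcDNA3.1(+) vector and compared with the C-terminally modified receptors in dose-response tests using each receptor's cognate ligand.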 The settings on record: read-out: Potency, EC50 changed C-term; OR2L3, modified C-terminus SEQ ID NO: 221 (SEQ ID NO: 412).
Target sequence in this assay (Q8NG85 1-296): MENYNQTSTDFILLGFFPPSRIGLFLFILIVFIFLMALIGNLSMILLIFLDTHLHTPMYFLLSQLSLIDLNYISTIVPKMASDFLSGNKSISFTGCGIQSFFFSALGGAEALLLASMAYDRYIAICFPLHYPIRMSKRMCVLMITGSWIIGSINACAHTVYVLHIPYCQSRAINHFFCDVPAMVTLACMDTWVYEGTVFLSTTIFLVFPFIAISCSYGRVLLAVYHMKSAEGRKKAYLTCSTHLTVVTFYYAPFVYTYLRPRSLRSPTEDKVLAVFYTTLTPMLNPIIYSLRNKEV
Experimental: as §1, §2
For series [7], the target named is human class II OR identified in the library screening (Homo sapiens, UniProt Q8NG80). The description is as above. The settings on record: read-out: Potency, EC50 changed C-term; OR2L5, modified C-terminus SEQ ID NO: 221 (SEQ ID NO: 413).
Target sequence in this assay (Q8NG80 1-296): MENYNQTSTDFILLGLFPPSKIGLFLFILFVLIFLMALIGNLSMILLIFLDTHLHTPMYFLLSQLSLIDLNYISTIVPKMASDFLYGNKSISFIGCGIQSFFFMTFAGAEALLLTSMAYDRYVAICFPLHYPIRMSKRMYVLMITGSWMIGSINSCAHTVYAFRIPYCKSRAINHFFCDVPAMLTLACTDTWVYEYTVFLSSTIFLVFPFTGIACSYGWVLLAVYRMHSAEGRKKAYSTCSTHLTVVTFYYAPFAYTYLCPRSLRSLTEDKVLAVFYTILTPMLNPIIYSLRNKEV
Experimental: as §1, §2
The target is the same in series [8].
Target sequence in this assay (Q8NG80 whole entry): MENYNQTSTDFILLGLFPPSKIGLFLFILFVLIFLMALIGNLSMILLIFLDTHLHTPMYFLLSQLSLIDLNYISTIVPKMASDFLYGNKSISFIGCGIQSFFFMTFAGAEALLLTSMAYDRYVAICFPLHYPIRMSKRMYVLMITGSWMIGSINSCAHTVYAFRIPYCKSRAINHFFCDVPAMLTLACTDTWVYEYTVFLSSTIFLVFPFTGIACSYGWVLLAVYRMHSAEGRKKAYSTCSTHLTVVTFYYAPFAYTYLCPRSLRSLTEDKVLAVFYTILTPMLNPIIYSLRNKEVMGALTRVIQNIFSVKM
Experimental: as §1, §2
Series [9] has as its target human class II OR identified in the library screening (Homo sapiens, UniProt Q8NG85).
Target sequence in this assay (Q8NG85 whole entry, the tested form may be a part): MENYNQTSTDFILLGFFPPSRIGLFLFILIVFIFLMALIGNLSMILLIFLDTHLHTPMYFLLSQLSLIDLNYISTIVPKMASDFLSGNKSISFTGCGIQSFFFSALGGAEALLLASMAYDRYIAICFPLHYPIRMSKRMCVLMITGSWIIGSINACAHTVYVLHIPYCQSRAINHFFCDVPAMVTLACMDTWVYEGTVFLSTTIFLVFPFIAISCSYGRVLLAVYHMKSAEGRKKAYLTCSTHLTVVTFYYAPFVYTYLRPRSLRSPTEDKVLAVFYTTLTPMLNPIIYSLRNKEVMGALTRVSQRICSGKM
Experimental: as §1, §2
In series [10] the target is human class II OR identified in the library screening (Homo sapiens, UniProt Q9GZK7). Put plainly: Confirmatory dose-response analysis of library-hit OR with cognate ligand, wild-type vs C-terminal domain SEQ ID NO: 221 (Table 17).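 Further: Wild-type receptor sequences expressed from the pcDNA3.1(+) vector and compared with the C-terminally modified receptors in dose-response tests using each receptor's cognate ligand.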
Target sequence in this assay (Q9GZK7 whole entry, the tested form may be a part): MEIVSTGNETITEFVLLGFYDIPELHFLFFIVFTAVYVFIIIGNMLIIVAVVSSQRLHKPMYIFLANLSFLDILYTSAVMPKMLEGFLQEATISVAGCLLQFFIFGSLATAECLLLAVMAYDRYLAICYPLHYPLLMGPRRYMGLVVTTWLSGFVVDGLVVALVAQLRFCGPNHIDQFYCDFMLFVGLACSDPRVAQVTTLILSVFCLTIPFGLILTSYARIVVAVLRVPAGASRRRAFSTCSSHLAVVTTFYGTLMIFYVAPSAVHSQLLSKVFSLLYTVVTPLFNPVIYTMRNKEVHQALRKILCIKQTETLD
Experimental: as §1, §2
The target is the same in series [11]. The series is described as above. The settings on record: read-out: Potency, EC50 changed C-term; OR11A1, modified C-terminus SEQ ID NO: 221 (SEQ ID NO: 702).
Target sequence in this assay (Q9GZK7 1-298): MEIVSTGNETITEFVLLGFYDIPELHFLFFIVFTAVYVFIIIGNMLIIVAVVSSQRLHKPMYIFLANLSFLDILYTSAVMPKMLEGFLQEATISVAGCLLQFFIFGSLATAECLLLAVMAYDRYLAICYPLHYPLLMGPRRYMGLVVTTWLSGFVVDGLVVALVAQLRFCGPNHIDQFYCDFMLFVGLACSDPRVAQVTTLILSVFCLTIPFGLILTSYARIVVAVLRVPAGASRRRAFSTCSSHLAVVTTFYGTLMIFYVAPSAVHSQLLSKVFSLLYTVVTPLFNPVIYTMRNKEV
Experimental: as §1, §2
Series [12] deals with human class II OR identified in the library screening (Homo sapiens, UniProt Q8NGG4).
Experimental: as §1, §2
In series [13] the test system is human class II OR identified in the library screening.
Experimental: as §1, §2
Where [14] appears, read: OR10K1, modified C-terminus SEQ ID NO: 221 vs wild-type.
Setting [15] is: OR2L5, modified C-terminus SEQ ID NO: 221 vs wild-type.
Setting [16] is: OR8H1, modified C-terminus SEQ ID NO: 221 vs wild-type.

Chain of human class II OR identified in the library screening (Homo sapiens, UniProt Q8NGG4) (Q8NGG4 whole entry): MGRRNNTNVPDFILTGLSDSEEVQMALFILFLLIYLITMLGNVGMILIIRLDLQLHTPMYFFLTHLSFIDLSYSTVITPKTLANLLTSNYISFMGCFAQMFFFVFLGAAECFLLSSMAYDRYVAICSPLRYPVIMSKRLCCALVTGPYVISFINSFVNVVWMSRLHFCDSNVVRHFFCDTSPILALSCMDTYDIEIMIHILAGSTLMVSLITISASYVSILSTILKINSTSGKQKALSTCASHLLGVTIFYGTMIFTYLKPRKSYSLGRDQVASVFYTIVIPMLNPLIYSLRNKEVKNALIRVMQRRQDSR

Take `CC(C)CCc1ccc2c(c1)OCC(=O)CO2` [7-(3-Methylbutyl)-benzo[b][1,4]dioxepin-3-one]: the EC50 (as a rule, the midpoint of the concentration-response curve) in series [1] worked out at 7 µM; in series [2], 2.2 µM. For the same molecule, the Fold improvement efficacy is given as 10.0 fold in series [3] (OR10H1, modified C-terminus SEQ ID NO: 221 vs wild-type) and 12.4 fold in series [3] (setting [14]). Moreover, in series [3] (OR10K1, EC50 modified C-terminus SEQ ID NO: 221 vs wild-type), the “Potency, Fold-improvement” value is given as 3.1 fold. Besides, the “Detection threshold; Fold improvement efficacy” value in [3] (setting [14]) amounted to 63.4 fold. Besides, the “Detection threshold; concentration for 2-fold induction, wild-type” value in series [4] was “no”; in [5], 9.4 µM.
Regarding `CCOC(=O)C1CCCCC1` [Ethyl cyclohexanecarboxylate], the EC50 amounted to 86.2 µM in series [6] and 4.76 µM in series [7]. In addition, the Fold improvement efficacy in series [3] (OR2L3, modified C-terminus SEQ ID NO: 221 vs wild-type) was 17.1 fold; in series [3] (setting [15]), 2.6 fold. The “Potency, Fold-improvement” value in [3] (OR2L5, EC50 modified C-terminus SEQ ID NO: 221 vs wild-type) came to 24.1 fold. In addition, the “Detection threshold; Fold improvement efficacy” value in series [3] (setting [15]) stood at 158.8 fold. Moreover, the results for the “Detection threshold; concentration for 2-fold induction, wild-type” value in series [8] and in series [9] were 40.5 µM and “no”, respectively.
`CC1CCCC2(C)CCCCC12O` (stereo not drawn) [Geosmin]: the figures for the EC50 in series [10] and in series [11] were 6.8 µM and 2.2 µM, respectively.
With `N#CC(=C1CCCCC1)c1ccccc1` [Peonile], the “Potency, Fold-improvement” value in [3] (OR8H1, EC50 modified C-terminus SEQ ID NO: 221 vs wild-type) is reported as 2.95 fold. Further, in series [3] (setting [16]), the Fold improvement efficacy came out at 4.2 fold and the “Detection threshold; Fold improvement efficacy” value amounted to 15.6 fold. Also, the EC50 in series [3] (read-out: Potency, EC50 changed C-term, OR8H1, modified C-terminus SEQ ID NO: 221 (SEQ ID NO: 637)) came out at 5.8 µM. Further, the “Detection threshold; concentration for 2-fold induction, wild-type” value in [12] came out at 6.9 µM. Further, the “Detection threshold; concentration for 2-fold induction, changed C-term.” value in [13] worked out at 0.4 µM.
